# According to US12054498B2, “Heteroaromatic macrocyclic ether chemotherapeutic agents” (Nuvalent, Inc., priority 2020, dated 2024):
# Legend:
# TRKA-wt = target: T1, TRKA-wt (Homo sapiens, UniProt P04629); experiment: Biochemical kinase assay, TRKA-wt kinase domain; details: apparent inhibitory constant, Morrison equation; ATP 2 mM in substrate solution; read-out: TRKA-wt Ki^app
# T1 construct: or TRKA-wt (1 nM, BPS Bio, 40280) kinase domains in buffer; purchased BPS Bio 40280
# Summary of the method: (§1)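 Continuous fluorescence read (λ=485 nm, every 2 min, 120 min, 30° C). Substrate solution held 2 mM ATP and 26 μM AQT0101 (ROS1/ALK) or AQT0104 (TRKA). Kinase solution: ROS1-G2032R 0.5 nM, ROS1-wt 0.6 nM, TRKA 1 nM, ALK double mutant 3 nM. Initial linear rates fed a Morrison-equation fit giving Ki^app.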
# [1] = target: T2, Ba/F3 cells CD74-ROS1 G2032R (Homo sapiens, UniProt P08922, G2032R); experiment: Ba/F3 cell proliferation assay, CD74-ROS1 G2032R; type: cell-based; details: 72 hours, CellTiter-Glo
# T2 construct: fusion of the C-terminus of ROS1 with the N-terminus of various partner proteins; host or cells: Ba/F3 (RIKEN), retroviral pMSCV-puro; the other entry of the earlier key: CD74 (P04233, HLA class II histocompatibility antigen gamma chain)
# T2 sequence (P08922 1883-2347 G2032R limits assumed): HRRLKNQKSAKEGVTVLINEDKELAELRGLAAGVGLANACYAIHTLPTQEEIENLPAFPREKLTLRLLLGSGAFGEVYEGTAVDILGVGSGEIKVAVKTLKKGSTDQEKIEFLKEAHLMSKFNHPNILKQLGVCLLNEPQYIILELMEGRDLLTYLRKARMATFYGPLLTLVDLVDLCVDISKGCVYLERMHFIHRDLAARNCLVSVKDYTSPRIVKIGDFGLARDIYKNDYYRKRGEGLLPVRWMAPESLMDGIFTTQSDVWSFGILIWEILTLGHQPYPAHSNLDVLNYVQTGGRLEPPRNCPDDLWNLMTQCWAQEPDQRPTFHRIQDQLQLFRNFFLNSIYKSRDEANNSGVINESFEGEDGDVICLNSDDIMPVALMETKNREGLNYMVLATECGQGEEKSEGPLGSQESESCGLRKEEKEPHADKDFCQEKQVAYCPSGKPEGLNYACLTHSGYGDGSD
# Summary of the method: (§2)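 Viability read by CellTiter-Glo luminescence after 72 h exposure to 3-fold serial compound dilutions, four-parameter logistic fitting giving IC50.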
# [2] = target: T3, Ba/F3 cells CD74-ROS1 wild-type (wt) (Homo sapiens, UniProt P08922); experiment: Ba/F3 cell proliferation assay, CD74-ROS1 wild-type; type: cell-based; details: 72 hours, CellTiter-Glo
# T3 construct: fusion of the C-terminus of ROS1 with the N-terminus of various partner proteins; host or cells: Ba/F3 (RIKEN), retroviral pMSCV-puro; the other entry of the earlier key: CD74 (P04233, HLA class II histocompatibility antigen gamma chain)
# T3 sequence (P08922 1883-2347 limits assumed): as the sequence (P08922 1883-2347 G2032R limits assumed) above, with R150G counted along it
# Summary of the method: as §2
# [3] = system: TPM3-NTRK1-wt IC50 / primary target IC50 (e.g. CD74-ROS1-wt); experiment: TRKA selectivity in Ba/F3 cells (TRKA potency divided by primary target potency); type: cell-based; details: for TPM3-NTRK1-wt/CD74-ROS1-G2032R selectivity ratio: TRKA potency / CD74-ROS1-G2032R potency; for TPM3-NTRK1-wt/CD74-ROS1-wt selectivity ratio: TRKA potency / CD74-ROS1-wt potency; for TPM3-NTRK1-wt/EML4-ALK-L1196M-G1202R selectivity ratio: TRKA potency / EML4-ALK-L1196M-G1202R potency; for TPM3-NTRK1-wt/EML4-ALK-wt selectivity ratio: TRKA potency / EML4-ALK-wt potency
# Experimental: TRKA selectivity was calculated by dividing a compound's TRKA potency by its primary target potency (e.g. TPM3-NTRK1-wt IC50/CD74-ROS1-wt IC50). Compound selectivity can be interpreted by binning ratio values: bin A for very high selectivity, ratio >30-fold; bin B for high selectivity, ratio >10-fold; bin C for moderate selectivity, ratio ≥1; and bin D for low selectivity, ratio <1. […] (nd=not determined).
# ALK L1196M/G1202R = target: T4, ALK L1196M/G1202R (Homo sapiens, UniProt Q9UM73, G1202R/L1196M); experiment: Biochemical kinase assay, ALK L1196M/G1202R kinase domain; details: apparent inhibitory constant, Morrison equation; ATP 2 mM in substrate solution; read-out: ALK-L1196M-G1202R Ki^app
# T4 construct: purchased SignalChem A19-12NG
# T4 sequence (Q9UM73 1116-1392 L1196M/G1202R limits assumed): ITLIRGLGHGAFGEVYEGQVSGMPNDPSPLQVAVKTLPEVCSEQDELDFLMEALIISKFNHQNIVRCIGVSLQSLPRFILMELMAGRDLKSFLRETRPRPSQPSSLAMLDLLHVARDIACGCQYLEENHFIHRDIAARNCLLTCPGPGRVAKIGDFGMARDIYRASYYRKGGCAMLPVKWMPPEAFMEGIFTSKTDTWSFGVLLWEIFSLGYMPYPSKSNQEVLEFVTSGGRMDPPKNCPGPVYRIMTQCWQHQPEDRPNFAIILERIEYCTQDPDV
# Summary of the method: as §1
# [4] = target: T5, Ba/F3 cells EML4-ALK wt (variant 1) (Homo sapiens, UniProt Q9UM73); experiment: Ba/F3 cell proliferation assay, EML4-ALK wt (variant 1); type: cell-based; details: 72 hours, CellTiter-Glo
# T5 construct: echinoderm microtubule-associated protein-like 4 (EML4) gene and the ALK tyrosine kinase domain; host or cells: Ba/F3 (RIKEN), retroviral pMSCV-puro; the other entry of the earlier key: EML4 (Q9HC35, Echinoderm microtubule-associated protein-like 4)
# T5 sequence (Q9UM73 with tags, fused parts or gaps): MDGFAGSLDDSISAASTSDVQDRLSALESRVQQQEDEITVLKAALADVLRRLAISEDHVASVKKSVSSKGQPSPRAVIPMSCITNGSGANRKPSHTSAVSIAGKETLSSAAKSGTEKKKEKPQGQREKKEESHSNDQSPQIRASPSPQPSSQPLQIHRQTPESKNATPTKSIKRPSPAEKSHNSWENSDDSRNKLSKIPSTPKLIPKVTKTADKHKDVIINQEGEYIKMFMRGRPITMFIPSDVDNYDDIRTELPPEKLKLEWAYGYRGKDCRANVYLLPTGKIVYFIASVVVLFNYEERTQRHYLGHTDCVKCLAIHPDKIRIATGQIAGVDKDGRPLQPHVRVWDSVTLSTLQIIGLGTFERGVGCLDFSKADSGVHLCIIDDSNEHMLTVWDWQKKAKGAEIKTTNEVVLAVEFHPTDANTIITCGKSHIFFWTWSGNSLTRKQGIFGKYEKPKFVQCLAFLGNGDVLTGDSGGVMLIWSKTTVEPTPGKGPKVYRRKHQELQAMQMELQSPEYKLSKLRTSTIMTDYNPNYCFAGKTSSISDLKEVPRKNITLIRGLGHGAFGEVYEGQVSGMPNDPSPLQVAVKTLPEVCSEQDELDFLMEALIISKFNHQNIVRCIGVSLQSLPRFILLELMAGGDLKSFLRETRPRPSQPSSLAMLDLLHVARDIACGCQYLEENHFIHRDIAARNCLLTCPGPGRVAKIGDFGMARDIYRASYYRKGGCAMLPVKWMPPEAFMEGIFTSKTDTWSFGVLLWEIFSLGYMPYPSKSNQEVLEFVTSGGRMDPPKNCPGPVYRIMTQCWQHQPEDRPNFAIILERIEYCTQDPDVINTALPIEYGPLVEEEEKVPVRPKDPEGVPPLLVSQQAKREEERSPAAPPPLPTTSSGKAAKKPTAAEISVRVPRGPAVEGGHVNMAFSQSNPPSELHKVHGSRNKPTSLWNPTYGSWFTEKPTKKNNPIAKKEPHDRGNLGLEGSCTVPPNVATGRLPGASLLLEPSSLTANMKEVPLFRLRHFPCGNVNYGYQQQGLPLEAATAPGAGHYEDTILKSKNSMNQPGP
# Summary of the method: (§3)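 First, Ba/F3 cells were made IL-3-independent via retroviral fusion expression and puromycin selection, then cloned by single-cell dilution. Next, 1,000 cells/well were plated for a day, exposed to 3-fold diluted compounds for 72 hours, and lysed with CellTiter-Glo. Finally, IC50 was fitted by four-parameter logistic regression.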
# Ba/F3 cells TPM3-TRKA = target: T6, Ba/F3 cells TPM3-TRKA (Homo sapiens, UniProt P04629); experiment: Ba/F3 cell proliferation assay, TPM3-TRKA; type: cell-based; details: 72 hours, CellTiter-Glo, read-out: TPM3-NTRK1-wt IC50
# T6 construct: host or cells: Ba/F3 (RIKEN), retroviral pMSCV-puro; the other entry of the earlier key: TPM3 (P06753, Tropomyosin alpha-3 chain)
# T6 sequence (P04629 510-796 limits assumed): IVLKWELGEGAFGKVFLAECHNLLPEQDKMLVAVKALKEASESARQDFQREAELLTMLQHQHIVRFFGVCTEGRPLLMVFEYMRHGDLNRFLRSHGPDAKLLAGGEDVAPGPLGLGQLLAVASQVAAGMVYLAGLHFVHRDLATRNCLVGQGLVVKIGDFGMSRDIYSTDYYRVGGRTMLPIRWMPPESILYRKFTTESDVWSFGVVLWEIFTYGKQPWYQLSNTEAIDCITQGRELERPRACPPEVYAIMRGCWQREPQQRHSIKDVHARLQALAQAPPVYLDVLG
# Summary of the method: as §3
# ALK-wt = target: T7, ALK-wt (Homo sapiens, UniProt Q9UM73); experiment: Biochemical kinase assay, ALK-wt kinase domain; details: apparent inhibitory constant, Morrison equation; ATP 2 mM in substrate solution; read-out: ALK-wt Ki^app
# T7 construct: purchased Carna 08-518
# T7 sequence (Q9UM73 1116-1392 limits assumed): as the sequence (Q9UM73 1116-1392 L1196M/G1202R limits assumed) above, with M81L, R87G counted along it
# Summary of the method: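 Compound in DMSO added first, then substrate solution (ATP 2 mM; AQT0101 or AQT0104, 26 μM; pH 7.5 HEPES, 10 mM MgCl2), then kinase solution with enzyme at 0.5–3 nM depending on construct. Kinetic read every 2 min for 120 min at 30° C; Ki^app by Morrison regression.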
# ROS1-wt = target: T8, ROS1-wt (Homo sapiens, UniProt P08922); experiment: Biochemical kinase assay, ROS1-wt kinase domain; details: apparent inhibitory constant, Morrison equation; ATP 2 mM in substrate solution; read-out: ROS1-wt Ki^app
# T8 construct: purchased Carna 08-163
# T8 sequence (P08922 1945-2222 limits assumed): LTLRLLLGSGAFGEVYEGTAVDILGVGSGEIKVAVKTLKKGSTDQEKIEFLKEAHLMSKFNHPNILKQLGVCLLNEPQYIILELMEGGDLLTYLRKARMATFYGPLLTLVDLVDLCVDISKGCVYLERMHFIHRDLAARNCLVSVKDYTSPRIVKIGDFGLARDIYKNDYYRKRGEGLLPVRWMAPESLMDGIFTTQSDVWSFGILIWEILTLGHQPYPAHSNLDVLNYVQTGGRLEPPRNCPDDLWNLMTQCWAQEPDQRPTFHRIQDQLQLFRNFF
# Summary of the method: (§4)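 Kinetic read: 485 nm, 2-min intervals, 120 min, 30 °C. Substrate mix — ATP 2 mM, AQT0101 26 μM, HEPES 50 mM pH 7.5, MgCl2 10 mM. Output: Ki^app, Morrison equation.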
# [5] = target: T9, Ba/F3 cells EML4-ALK L1196M/G1202R (variant 1) (Homo sapiens, UniProt Q9UM73, G1202R/L1196M); experiment: Ba/F3 cell proliferation assay, EML4-ALK L1196M/G1202R (variant 1); type: cell-based; details: 72 hours, CellTiter-Glo
# T9 construct: echinoderm microtubule-associated protein-like 4 (EML4) gene and the ALK tyrosine kinase domain; host or cells: Ba/F3 (RIKEN), retroviral pMSCV-puro; the other entry of the earlier key: EML4 (Q9HC35, Echinoderm microtubule-associated protein-like 4)
# T9 sequence (Q9UM73 with tags, fused parts or gaps L1196M/G1202R): as the sequence (Q9UM73 with tags, fused parts or gaps) above, with L635M, G641R counted along it
# Summary of the method: as §3
# ROS1-G2032R = target: T10, ROS1-G2032R (Homo sapiens, UniProt P08922, G2032R); experiment: Biochemical kinase assay, ROS1-G2032R kinase domain; details: apparent inhibitory constant, Morrison equation; ATP 2 mM in substrate solution; read-out: ROS1-G2032R Ki^app
# T10 construct: purchased SignalChem R14-12BG
# T10 sequence (P08922 1945-2222 G2032R limits assumed): as the sequence (P08922 1945-2222 limits assumed) above, with G88R counted along it
# Summary of the method: as §4
# T1 sequence (P04629 510-781 limits assumed): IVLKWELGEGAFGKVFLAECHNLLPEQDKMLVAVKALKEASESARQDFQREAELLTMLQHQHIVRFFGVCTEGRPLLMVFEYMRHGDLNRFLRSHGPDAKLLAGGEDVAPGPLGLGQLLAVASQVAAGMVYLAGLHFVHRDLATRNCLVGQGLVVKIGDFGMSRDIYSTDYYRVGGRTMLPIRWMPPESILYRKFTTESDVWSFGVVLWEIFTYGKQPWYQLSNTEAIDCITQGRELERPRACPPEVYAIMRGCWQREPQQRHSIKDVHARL
Ki (TRKA-wt),IC50 [1],IC50 [2],Ki (ALK L1196M/G1202R),IC50 [4],IC50 (Ba/F3 cells TPM3-TRKA),Ki (ALK-wt),Ki (ROS1-wt),IC50 [5],Ki (ROS1-G2032R),SMILES,TPM3-NTRK1-wt/CD74-ROS1-G2032R selectivity ratio [3],TPM3-NTRK1-wt/CD74-ROS1-wt selectivity ratio [3],TPM3-NTRK1-wt/EML4-ALK-L1196M-G1202R selectivity ratio [3],TPM3-NTRK1-wt/EML4-ALK-wt selectivity ratio [3]
50 to 500 nM,0.1 to 50 nM,0.1 to 50 nM,< 50 nM,0.1 to 50 nM,> 500 nM,< 50 nM,< 50 nM,0.1 to 50 nM,< 50 nM,"CCn1ncc2c1-c1cnc(N)c(c1)O[C@H](C)c1cc(F)ccc1-c1cn(C)nc1C2 [Example 9, (19R)-3-ethyl-16-fluoro-10,19-dimethyl-20-oxa-3,4,9,10,23-pentaazapentacyclo[19.3,1.0^2,^6.0^8,^12.0^13,^18]pentacosa-1(24),2(6),4,8,11,13,15,17,21 (25),22-decaen-22-amine]","A (bin A for very high selectivity, ratio >30-fold)","A (bin A for very high selectivity, ratio >30-fold)","B (bin B for high selectivity, ratio >10-fold)","A (bin A for very high selectivity, ratio >30-fold)"
> 500 nM,0.1 to 50 nM,0.1 to 50 nM,< 50 nM,0.1 to 50 nM,> 500 nM,< 50 nM,< 50 nM,0.1 to 50 nM,< 50 nM,"C[C@H]1Oc2cc(cnc2N)-c2c(cnn2C2CCC2)Cc2nn(C)nc2-c2ccc(F)cc21 [Example 13, (19R)-3-cyclobutyl-16-fluoro-10,19-dimethyl-20-oxa-3,4,9,10,11,23-hexaazapentacyclo[19.3.1.0^2,^6.0^8,^12.0^13,^18]pentacosa-1(24),2(6),4,8,11,13,15,17,21(25),22-decaen-22-amine]","A (bin A for very high selectivity, ratio >30-fold)","A (bin A for very high selectivity, ratio >30-fold)","A (bin A for very high selectivity, ratio >30-fold)","A (bin A for very high selectivity, ratio >30-fold)"
> 500 nM,0.1 to 50 nM,0.1 to 50 nM,< 50 nM,0.1 to 50 nM,> 500 nM,< 50 nM,< 50 nM,0.1 to 50 nM,< 50 nM,Cc1nn(CC2CC2)c2c1Cc1nn(C)nc1-c1ccc(F)cc1[C@@H](C)Oc1cc-2cnc1N [Example 65],"A (bin A for very high selectivity, ratio >30-fold)","A (bin A for very high selectivity, ratio >30-fold)","A (bin A for very high selectivity, ratio >30-fold)","A (bin A for very high selectivity, ratio >30-fold)"

# The next lines start with the compound.
SMILES,Ki (TRKA-wt),IC50 [1],IC50 [2],Ki (ALK L1196M/G1202R),IC50 [4],IC50 (Ba/F3 cells TPM3-TRKA),Ki (ALK-wt),Ki (ROS1-wt),IC50 [5],Ki (ROS1-G2032R),TPM3-NTRK1-wt/CD74-ROS1-G2032R selectivity ratio [3],TPM3-NTRK1-wt/CD74-ROS1-wt selectivity ratio [3],TPM3-NTRK1-wt/EML4-ALK-L1196M-G1202R selectivity ratio [3],TPM3-NTRK1-wt/EML4-ALK-wt selectivity ratio [3]
"CCn1ncc2c1-c1cnc(N)c(c1)OC(C)c1cc(F)ccc1-c1cccnc1C2 (centres unmarked) [Example 34, 3-ethyl-17-fluoro-20-methyl-21-oxa-3,4,9,24-tetraazapentacyclo[20.3.1.0^2,^6.0^8,^13.0^14,^19]hexacosa-1(25),2(6),4,8(13),9,11,14,16,18,22(26),23-undecaen-23-amine]",50 to 500 nM,0.1 to 50 nM,0.1 to 50 nM,< 50 nM,0.1 to 50 nM,50 to 500 nM,< 50 nM,< 50 nM,0.1 to 50 nM,< 50 nM,"A (bin A for very high selectivity, ratio >30-fold)","A (bin A for very high selectivity, ratio >30-fold)","B (bin B for high selectivity, ratio >10-fold)","A (bin A for very high selectivity, ratio >30-fold)"
"C[C@H]1Oc2cc(cnc2N)-c2c(cnn2CC2CC2)Cn2ncnc2-c2ccc(F)cc21 [Example 70, (19R)-3-(cyclopropylmethyl)-16-fluoro-19-methyl-20-oxa-3,4,8,9,11,23-hexaazapentacyclo[19.3.1.0^2,^6.0^8,^12.0^13,^18]pentacosa-1(24),2(6),4,9,11,13,15,17,21(25),22-decaen-22-amine]",> 500 nM,0.1 to 50 nM,0.1 to 50 nM,< 50 nM,0.1 to 50 nM,> 500 nM,< 50 nM,< 50 nM,50 to 500 nM,< 50 nM,"A (bin A for very high selectivity, ratio >30-fold)","A (bin A for very high selectivity, ratio >30-fold)","A (bin A for very high selectivity, ratio >30-fold)","A (bin A for very high selectivity, ratio >30-fold)"
"CCn1nnc2c1-c1cnc(N)c(c1)O[C@H](C)c1cc(F)ccc1-c1cc(Cl)nn1C2 [Example 54, (19R)-10-chloro-3-ethyl-16-fluoro-19-methyl-20-oxa-3,4,5,8,9,23-hexaazapentacyclo[19.3.1.0^2,^6.0^8,^12.0^13,^18]pentacosa-1(24),2(6),4,9,11,13,15,17,21(25),22-decaen-22-amine]",50 to 500 nM,0.1 to 50 nM,0.1 to 50 nM,50 to 500 nM,0.1 to 50 nM,50 to 500 nM,< 50 nM,< 50 nM,50 to 500 nM,< 50 nM,"A (bin A for very high selectivity, ratio >30-fold)","A (bin A for very high selectivity, ratio >30-fold)","D (bin D for low selectivity, ratio <1)","C (bin C for moderate selectivity, ratio ≥1)"
"CCn1ncc2c1-c1cnc(N)c(c1)O[C@H](C)c1cc(F)ccc1-c1cc(Cl)nn1C2 [Example 16, (19R)-10-chloro-3-ethyl-16-fluoro-19-methyl-20-oxa-3,4,8,9,23-pentaazapentacyclo[19.3.1.0^2,^6.0^8,^12.0^13,^18]pentacosa-1(24),2(6),4,9,11,13,15,17,21(25),22-decaen-22-amine]",< 50 nM,0.1 to 50 nM,0.1 to 50 nM,< 50 nM,0.1 to 50 nM,50 to 500 nM,< 50 nM,< 50 nM,0.1 to 50 nM,< 50 nM,"A (bin A for very high selectivity, ratio >30-fold)","A (bin A for very high selectivity, ratio >30-fold)","C (bin C for moderate selectivity, ratio ≥1)","B (bin B for high selectivity, ratio >10-fold)"
